Reference: US20190069544A1, “COMPOSITION COMPRISING A MEL, A FATTY ACID METHYL ESTER AND A NON-IONIC […] A HLB VALUE GREATER THAN OR EQUAL TO 12” (OLEON NV, priority 2016, published 2019)

Columns and labels:
[1] = test system: chenopodium plants (Chenopodium album); assay: Herbicide effectiveness: destruction of the vegetation, naked eye, 14 days after treatment; assay type: in vivo
Protocol: (§1) Composition 2 according to the invention prepared in Example 1 was used in combination with an herbicide active ingredient (glyphosate) in the treatment of chenopodium plants (Chenopodium album). The chenopodium plants used were at a 2 to 3 leaves stage (BBCH 12-13), and were grown in a phytotron at a temperature of 15° C. during the night and 20° C. during the day, with a photoperiod of 14 hours. The glyphosate used was non-formulated (technical ingredient, reference 4521, Sigma-Aldrich®). […]
Evaluation of the effectiveness was also carried out by observation of the plants with the naked eye 14 days after treatment. The effectiveness is evaluated in percentage of destruction of the vegetation, taking into account the size of the plants and the symptoms of phytotoxicity such as deformation of the leaves, the appearance of white patches and necrosis.

[2] = test system: chenopodium plants (Chenopodium album); assay: Cell activity of plant roots by fluorescent markers after treatment; assay type: in vivo; settings: 24 to 48 h after treatment, 500 g/ha, 2% ammonium sulphate (FIG. 10)
Protocol: as §1
The evaluation of the effectiveness was carried out by measuring the cell activity of the roots of the plants 24 to 48 h after treatment. The cell activity is measured by staining the cells using fluorescent markers making it possible to distinguish: • the cells having a metabolic activity (living cells), which emit a green fluorescence; • the structures which emit a blue fluorescence; and • the dead cells, which emit a red fluorescence.
When the cell metabolic activity reduces, the green fluorescence reduces.

## O=C(O)CNCP(=O)(O)O [glyphosate]
[1]; 14 days after treatment (FIGS. 11, 12)
  Phytotoxicity, in words: not observed
[1]; 14 days after treatment, dose 500 g/ha, 2% ammonium sulphate, average of 4 pots of 4 plants
  Effectiveness (average), percentage of destruction of the vegetation: 0%
[2]
  Reduction in the intensity of the fluorescence in the cells of the roots (cell metabolic activity): not observed
